Results reported in patent publication US20060183119A1, “Method for determining predisposition to a physiological reaction in a patient” (UNIVERSITE LAVAL, priority 2002, published 2006).
“And” between values parts separate entries of the source, which are not always exact repeats. Identical values can stand only once. Like-named read-outs stand apart in the source and are kept apart here.

Columns and labels:
UGT1A7*7 = molecular target: T1, UGT1A7*7 (Homo sapiens, UniProt Q9HAW7, E139D/N129K/R131K); assay: SN-38 glucuronidation by microsomes of HEK293 cells expressing UGT1A7*7; assay type: in vitro ADME; set-up: key to Function (SN-38G formation versus *1 allele): High: no significant difference in activity compared to *1 allele.; Low: significantly lower SN-38G formation versus *1 allele
T1 construct: expressed in transfected cells
T1 sequence (Q9HAW7 26-530 N129K/R131K/E139D): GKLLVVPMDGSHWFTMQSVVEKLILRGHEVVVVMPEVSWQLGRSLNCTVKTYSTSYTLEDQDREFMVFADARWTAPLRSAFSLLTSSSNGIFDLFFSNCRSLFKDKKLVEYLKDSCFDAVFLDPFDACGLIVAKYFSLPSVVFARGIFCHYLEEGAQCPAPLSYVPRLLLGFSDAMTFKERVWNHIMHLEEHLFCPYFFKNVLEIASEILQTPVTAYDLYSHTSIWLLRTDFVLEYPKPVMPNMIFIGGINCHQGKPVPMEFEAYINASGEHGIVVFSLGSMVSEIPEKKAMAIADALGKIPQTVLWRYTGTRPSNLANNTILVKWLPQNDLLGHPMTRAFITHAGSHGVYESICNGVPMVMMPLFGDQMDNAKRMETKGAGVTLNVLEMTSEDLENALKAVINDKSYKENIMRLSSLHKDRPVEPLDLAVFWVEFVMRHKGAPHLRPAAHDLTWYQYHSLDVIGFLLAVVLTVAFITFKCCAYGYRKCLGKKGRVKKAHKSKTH
Procedure: Western blot analyses of UGT1A7 and UGT1A9 variants expressed in HEK293 cells were performed on microsomal proteins (10 μg) separated on a 10% SDS-polyacrylamide gel. After transferring the proteins, the membranes were probed with an anti-UGT1A RC-71 polyclonal antibody and with an anti-calnexin antibody. The relative levels of UGT1A9 (a) and UGT1A7 proteins (b) were determined by semi-quantitative densitometric analysis of the Enhanced chemiluminescence (ECL) image. The in vitro SN-38 activity was assessed using microsomal fractions prepared from HEK293 cells expressing the *1 and variant UGT1A9 (c) and UGT1A7 (d) alleles and incubated with 5 μM of SN-38 as described in Materials and Methods.
For the determination of Vmax and Km.

human UGT1A9*1 = molecular target: T2, human UGT1A9*1 (Homo sapiens, UniProt O60656); details: SN-38 glucuronidation
T2 sequence (O60656 26-530): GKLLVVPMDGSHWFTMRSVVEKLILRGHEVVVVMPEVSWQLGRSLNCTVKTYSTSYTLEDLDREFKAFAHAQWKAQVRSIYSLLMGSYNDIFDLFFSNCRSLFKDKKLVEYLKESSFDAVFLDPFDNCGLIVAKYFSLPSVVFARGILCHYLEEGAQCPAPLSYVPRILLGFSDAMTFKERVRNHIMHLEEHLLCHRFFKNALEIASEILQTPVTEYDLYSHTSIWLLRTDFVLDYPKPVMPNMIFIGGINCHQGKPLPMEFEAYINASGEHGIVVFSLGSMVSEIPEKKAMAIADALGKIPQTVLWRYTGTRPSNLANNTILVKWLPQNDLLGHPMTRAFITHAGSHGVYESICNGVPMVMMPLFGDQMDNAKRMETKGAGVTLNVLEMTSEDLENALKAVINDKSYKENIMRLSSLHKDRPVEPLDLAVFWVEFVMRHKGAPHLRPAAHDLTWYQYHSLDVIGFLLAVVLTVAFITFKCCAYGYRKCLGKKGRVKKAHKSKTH
Procedure: Microsomal fractions from HEK-293 cells stably expressing human UGT1A9*1, UGT1A9*2 and UGT1A9*3 were used in enzymatic assays. Reactions (100 μl volume) contained 50 mM Tris-HCl, pH 7.3, 10 mM MgCl2, 100 μg/mL phosphatidylcholine, 1 mM UDP-glucuronic acid, 40 to 60 μg of membrane protein. […] Human liver microsome were incubated in the same condition for control. Reaction was stopped by the addition of 200 μL MeOH+1% HCl 2N, followed by centrifugation at 14000 rpm for 10 minutes. Supernatant was filtered through a 0.22 μm filter and 100 μL of water was added. For SN-38 and SN-38-glucuronide detection, 10 μL samples were injected on a liquid chromatographic system coupled to a fluorescence detector. Time-course experiments were realized to determine the linearity of the glucuronidation reaction.
A liquid chromatographic method was developed to quantify SN-38 glucuronidation of UGT cell line-derived microsomes and human liver microsomes. Samples were analyzed using high performance liquid chromatography (Alliance 2695, Waters, Milford, Mass.). […] At a constant flow rate (0.7 ml/min), a linear gradient from 20 to 65% B was run over 3 min, held 0.8 min and a second gradient until 95% of B was run over 2 min and then re-equilibrated to 20% B over 2 min. The effluent from the HPLC system (Alliance 2695) was connected directly to a fluorescence detector (Waters, Milford, Mass.) using an excitation wavelength of […] and an emission of 460 nm. […] Determination of the glucuronidation rates obtained with other substrates was performed as currently known in the art.
Microsomal fractions from HEK293 (40 to 60 μg) were added to a reaction mixture (100 μL) containing 50 mM Tris-HCl, pH 7.3, 10 mM MgCl2, 100 μg/mL phosphatidylcholine and 2 mM UDP-glucuronic acid. […] Commercially available human liver microsomes (Human Cell Culture Center Inc., Laurel, Md.) were incubated in the same conditions for all experiments. Time-course experiments were performed to determine the linearity of the glucuronidation reaction. For the determination of Vmax and Km. HEK293 cells stably expressing UGT1A9 enzymes were incubated in the presence of various concentrations of SN-38 ranging from 0.1 to 200 μM and incubated for 30 min as described above whereas UGT1A7 membranes preparations were incubated for 3 hours. […] For the detection of SN-38 and its glucuronide (SN-38G), 10 μL samples were injected in a liquid chromatographic system (HPLC) coupled to fluorescence detector as described below.
A HPLC method was developed to quantify the rates of SN-38 glucuronidation from the various microsomal fractions under study. […] The column was connected to a fluorescence detector model 474 (Waters, Milford, Mass.) and the molecules were excited at a wavelength of 370 nm and an emission of 425 nm.

With `CCc1c2c(nc3ccc(O)cc13)-c1cc3c(c(=O)n1C2)COC(=O)[C@]3(O)CC` [SN-38, 7-ethyl-10-hydroxycamptothecin] the “Function (SN-38G formation versus *1 allele)” value (UGT1A7*7; in vitro experiments) was “High”, the “lower rates of SN-38G formation compared to UGT1A7*1” value (UGT1A7*7; range given for *5, *7 and *8 together) was 38-76% and the Vmax (human UGT1A9*1; 0.1 to 200 μM, mean±SD) was 316.34±52.03 pmol/min/mg protein. For the same compound, the Km (human UGT1A9*1; Table 5) was 3.03 ± 0.72 µM, the Vmax (human UGT1A9*1; Table 5) was 316.34 ± 52.03 and the Km (human UGT1A9*1; read-out: Apparent Km, 0.1 to 200 μM, mean±SD, Lineweaver-Burk) was 3.03 µM and 3.02 µM.
